Source: patent US20070232904A1, “Application of Hyaluronic Acid to Sentinel Lymph Node Identification” (OAKLEY, INC., priority 2004, published 2007)

System: sentinel lymph node (SLN)
Experiment: Sentinel lymph node detection after submucosal injection in stomach and small intestine of laparotomized pig, observed by color change
Format: in vivo
Settings: 0.5 mL submucosal
Experimental: A pig was laparotomized under general anesthesia and the mixture of the sodium hyaluronate and the patent blue prepared in (1) above and patent blue alone as a control were each injected at two locations which were in the tissues (submucosal) of the stomach and small intestine at 0.5 mL each, and migration from the lymphatic vessels to the lymph nodes was monitored for 3 hours after injection based on the changes in color under laparotomy. […] In addition, the colored lymph nodes were investigated histologically after 3 hours and after 24 hours. A pig was laparotomized under general anesthesia and the mixture of the sodium hyaluronate and the ferumoxides injection solution prepared in (1) above and the ferumoxides injection solution alone as a control were each injected at two locations which were in the tissues (submucosal) of the stomach and small intestine at 0.5 mL each, and migration from the lymphatic vessels to the lymph nodes was monitored for 3 hours after injection based on the changes in color under laparotomy. […] In addition, the colored lymph nodes were investigated histologically after 3 hours and after 24 hours. […]

time to almost complete disappearance from the associated lymphatic system (after injection): ≤ 2 h
Compound: CCN(CC)c1ccc(C(=C2C=CC(=[N+](CC)CC)C=C2)c2cc(O)c(S(=O)(=O)O)cc2S(=O)(=O)O)cc1 [patent blue]
time until staining of the lymphatic system / SLN after injection (stomach and small intestine wall): several minutes
